Test results as given in ChEMBL document CHEMBL3988442, “University of Dundee, Small-Polar-MMV Screening Library” (2021).
Where “and” joins values, the source holds several entries; their conditions need not be identical. Identical values can stand only once.

Legend:
[1] = biological target: Chromo domain-containing protein 1 (Saccharomyces cerevisiae (strain ATCC 204508 / S288c) (Baker's yeast), UniProt P32657); assay: ScCHD-1 Enzyme Inhibition Assay; assay type: functional
[2] = biological target: T1, Ubiquitin-activating enzyme e1, putative (Leishmania donovani (strain BPK282A1), UniProt E9BSI1); assay: Leishmania donovani Ubiquitin Activating Enzyme (LdE1); assay type: functional
T1 sequence (E9BSI1 whole entry): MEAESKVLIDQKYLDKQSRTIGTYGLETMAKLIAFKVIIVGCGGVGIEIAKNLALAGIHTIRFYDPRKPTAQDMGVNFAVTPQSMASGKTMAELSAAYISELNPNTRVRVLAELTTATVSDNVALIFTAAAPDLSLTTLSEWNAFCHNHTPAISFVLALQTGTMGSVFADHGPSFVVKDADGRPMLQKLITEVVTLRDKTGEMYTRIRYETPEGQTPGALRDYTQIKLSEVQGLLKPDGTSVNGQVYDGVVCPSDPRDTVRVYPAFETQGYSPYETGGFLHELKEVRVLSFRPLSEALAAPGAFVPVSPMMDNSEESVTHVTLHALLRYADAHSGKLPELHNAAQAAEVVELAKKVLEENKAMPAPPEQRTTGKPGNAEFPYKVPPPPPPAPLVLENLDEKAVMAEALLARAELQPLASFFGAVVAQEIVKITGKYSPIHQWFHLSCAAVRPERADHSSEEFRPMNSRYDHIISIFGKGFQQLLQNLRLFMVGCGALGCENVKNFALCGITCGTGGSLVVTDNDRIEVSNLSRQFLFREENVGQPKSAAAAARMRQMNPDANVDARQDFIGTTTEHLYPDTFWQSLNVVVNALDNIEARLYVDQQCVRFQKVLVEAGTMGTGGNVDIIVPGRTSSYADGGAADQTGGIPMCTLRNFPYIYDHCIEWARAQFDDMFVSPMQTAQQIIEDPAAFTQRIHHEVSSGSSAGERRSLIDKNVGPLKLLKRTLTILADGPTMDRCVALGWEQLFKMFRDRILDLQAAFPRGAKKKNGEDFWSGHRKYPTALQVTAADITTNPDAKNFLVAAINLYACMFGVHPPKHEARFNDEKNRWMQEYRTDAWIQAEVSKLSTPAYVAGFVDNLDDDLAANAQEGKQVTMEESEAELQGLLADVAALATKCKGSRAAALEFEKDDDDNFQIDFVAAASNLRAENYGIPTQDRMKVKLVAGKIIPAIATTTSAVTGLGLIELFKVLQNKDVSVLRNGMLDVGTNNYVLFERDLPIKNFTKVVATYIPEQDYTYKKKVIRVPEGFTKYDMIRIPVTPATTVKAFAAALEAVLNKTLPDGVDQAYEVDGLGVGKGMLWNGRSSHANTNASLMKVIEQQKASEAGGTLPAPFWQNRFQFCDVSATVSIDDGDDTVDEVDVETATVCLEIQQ

Leishmania donovani = assay: Leishmania intramacrophage assay; assay type: functional, organism-based; conditions: Leishmania donovani
Lysine--tRNA ligase = Lysine--tRNA ligase (Plasmodium falciparum (isolate 3D7), UniProt Q8IDJ8); assay: Pf-KRS-1 (Lysyl-RNA Synthetase-1, KRS-1, cytosolic KRS) from Plasmodium falciparum. Inhibitor assay, 384 well plate, luminescence read.; assay type: functional
Histidine--tRNA ligase = biological target: T2, Histidine--tRNA ligase (Leishmania infantum, UniProt A4I591); assay: Leishmania infantum Histidine tRNA synthetase (LdHisRS); assay type: functional
T2 sequence (A4I591 whole entry): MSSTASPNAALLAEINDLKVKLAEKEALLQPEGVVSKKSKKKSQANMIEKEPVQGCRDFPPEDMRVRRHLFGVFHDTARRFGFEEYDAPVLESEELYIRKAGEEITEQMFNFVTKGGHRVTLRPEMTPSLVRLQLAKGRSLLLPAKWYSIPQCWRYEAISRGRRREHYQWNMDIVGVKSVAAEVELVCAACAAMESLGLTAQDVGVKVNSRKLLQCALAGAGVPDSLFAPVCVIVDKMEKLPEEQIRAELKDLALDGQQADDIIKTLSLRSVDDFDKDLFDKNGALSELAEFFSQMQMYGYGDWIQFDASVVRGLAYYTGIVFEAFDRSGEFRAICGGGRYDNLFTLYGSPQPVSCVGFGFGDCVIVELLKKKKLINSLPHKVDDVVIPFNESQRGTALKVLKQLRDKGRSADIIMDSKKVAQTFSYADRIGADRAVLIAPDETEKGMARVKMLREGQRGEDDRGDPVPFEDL

Tryptophan--tRNA ligase = Tryptophan--tRNA ligase (Mycobacterium tuberculosis (strain ATCC 25618 / H37Rv), UniProt P9WFT3); assay: Biochemical assay for Mt-TrpRS; assay type: functional
[3] = biological target: Polyketide synthase Pks13 (Mycobacterium tuberculosis (strain ATCC 25618 / H37Rv), UniProt I6X8D2); assay: Mycobacterium tuberculosis Polyketide synthase 13 Thioesterase (PKS13); assay type: functional
ClpP1P2 = ClpP1P2 (Mycobacterium tuberculosis (strain ATCC 25618 / H37Rv), UniProt P9WPC3+P9WPC5); assay: in vitro assay to detect presence of AMC directly proportional to the activity of ClpP1P2. GHDDI collaboration.; assay type: functional
[4] = test system: Mycobacterium tuberculosis; assay: Cornell M. t heat shock assay; assay type: functional, organism-based; conditions: Mycobacterium tuberculosis
Plasmodium falciparum = assay: Plasmodium falciparum sporozoite viability assay; assay type: functional, organism-based; conditions: Plasmodium falciparum

SMILES	IC50 [2] [µM]	IC50 (Histidine--tRNA ligase)	other results
CCc1nc(C2CCCN(C(=O)c3cn(C)nc3C)C2)no1 (stereo unspecified)	–	–	IC50 [1]: > 29.5 µM
CC(C)c1noc(CCC(=O)NC(C)c2nnc3n2CCCCC3)n1 (stereo unspecified)	–	–	IC50 [1]: > 29.5 µM
CN(C)Cc1ccc(C2CCCCN2C(=O)c2cccc(CO)n2)cc1 (stereo unspecified)	–	–	IC50 [1]: > 29.5 µM
CC(NC(=O)NCCNc1cnccn1)c1cccs1 (stereo unspecified)	> 100	–	IC50 (Leishmania donovani): > 50.1 µM
Cc1nc(CN2CCCC(CCc3c(F)cccc3F)C2)c[nH]1 (stereo unspecified)	–	–	IC50 [1]: > 29.5 µM
CCNC(=O)N(C)Cc1ccc(SC)c(OC)c1	–	–	IC50 [1]: > 29.5 µM
CNS(=O)(=O)Cc1ccc(CNC(=O)Nc2cn[nH]c2)cc1	> 100	–	IC50 (Lysine--tRNA ligase): > 50.1 µM
Cn1nc2c(cc1=O)CN(Cc1nc(C3CC3)no1)CC2	> 100	23.8 µM and 20.7 µM	–
Cc1ccc(-c2nc(CN3CCc4nn(C)c(=O)cc4C3)no2)cc1	> 100	72.7 µM and 85.3 µM	–
Cn1nc2c(cc1=O)CN(Cc1nnc(-c3ccco3)o1)CC2	> 100	44 µM and 59.9 µM	–
CN(C(=O)c1ccccn1)c1nc2c(s1)CCc1c-2cnn1C	> 100	30.7 µM and 23.3 µM	–
CC(C)N1CCC(Cc2cncc(-c3cccc(C(=O)O)c3)n2)C1 (stereo unspecified)	> 100	–	IC50 (Tryptophan--tRNA ligase): > 195 µM
CCCN(C(=O)c1cnccn1)c1nc2c(s1)CCc1c-2cnn1C	> 100	60.2 µM and 72.5 µM	–
CN(C)c1ccc(C(=O)N2CCN(C(=O)N3CCCCC3)CC2)nn1	> 100	–	IC50 [3]: > 100 µM
Cc1nc(C)n(CC2CCCN2Cc2ncc(-c3ccccc3)o2)n1 (stereo unspecified)	> 100	–	IC50 (ClpP1P2): > 100 µM
COCc1nc2cc(NCc3sc(C)nc3C)ccc2o1	> 100	15.1 µM and 19.3 µM	IC50 (Lysine--tRNA ligase): > 50.1 µM
Cc1ccc(-c2nnc(CN3CCc4nn(C)c(=O)cc4C3)o2)cc1	> 100	10.5 µM and 12.1 µM	–
CCc1nnc(CNC2CCc3nc(C(C)C)nn3C2)o1 (stereo unspecified)	> 100	–	IC50 [4]: > 100 µM
Cn1nc2c(cc1=O)CN(Cc1nnc(-c3ccc(F)cc3)o1)CC2	> 100	83.1 µM and 70.4 µM	–
COCCN(C(=O)c1cnccn1)c1nc2c(s1)CCc1c-2cnn1C	> 100	> 100 µM	–

SMILES	IC50 [2] [µM]	IC50 (Histidine--tRNA ligase)	other results
NC(=O)c1ccc(CNC(=O)Nc2cn[nH]c2)cc1	> 100	–	IC50 (Tryptophan--tRNA ligase): > 195 µM
COCc1nc2cc(NCc3ccc(CO)o3)ccc2o1	> 100	86.1 µM and > 100 µM	–
Cn1nc2c(cc1=O)CN(Cc1coc(-c3ccc(F)cc3)n1)CC2	> 100	16.5 µM and 18.8 µM	–
COCc1nc2cc(NCc3ccc(C)o3)ccc2o1	> 100	67.5 µM and 55.3 µM	IC50 (Lysine--tRNA ligase): > 50.1 µM
CCCN(C(=O)c1cnc(C)cn1)c1nc2c(s1)CCc1c-2cnn1C	> 100	43.9 µM and 33.5 µM	IC50 (Lysine--tRNA ligase): > 50.1 µM
COCCN(C(=O)c1ccccn1)c1nc2c(s1)CCc1c-2cnn1C	> 100	9.13 µM and 10.9 µM	IC50 (Plasmodium falciparum): 0.574 µM; IC50 (Lysine--tRNA ligase): > 50.1 µM
CCCN(C(=O)COC)c1nc2c(s1)CCc1c-2cnn1C	> 100	7.02 µM and 8.63 µM	IC50 (Lysine--tRNA ligase): > 50.1 µM
COCc1nc2cc(NCc3nc(C)cs3)ccc2o1	> 100	24.1 µM and 33.1 µM	IC50 (Lysine--tRNA ligase): > 50.1 µM
CCCN(C(=O)c1ccncc1)c1nc2c(s1)CCc1c-2cnn1C	> 100	20.6 µM and 17 µM	IC50 (Lysine--tRNA ligase): > 50.1 µM
COCc1nc2cc(NCc3scnc3C)ccc2o1	> 100	77.5 µM and 90.5 µM	–
COCc1nc2cc(NCc3cc[nH]n3)ccc2o1	> 100	> 100 µM	–
CN(C)c1ccc(C(=O)N2CCN(CC(O)C(C)(C)C)CC2)nn1 (stereo unspecified)	> 100	–	–
CC(C)N1CCC(Cc2cncc(-c3cccc(C(=O)O)c3)n2)CC1	> 100	–	–
Cn1cc(C(=O)N2C[C@@H]3COC[C@]3(COCc3cccnc3)C2)cn1	> 100	–	–
O=C(Cc1cccs1)N1C[C@@H]2COC[C@]2(COCc2cccnc2)C1	> 100	–	–
Cn1nc2c(cc1=O)CN(Cc1coc(-c3cccc(F)c3)n1)CC2	> 100	17 µM and 14.3 µM	–
CC(O)CN1CCN(C(=O)c2ccc(N(C)C)nc2)CC1 (stereo unspecified)	> 100	–	–
Cc1nc(C)c(C(=O)NCCNc2ncccc2C(F)(F)F)s1	> 100	–	–
O=C(CCNC(=O)C1CCCC1)NCc1ccccc1Cn1ccnc1	> 100	–	–
CC(Cn1cccn1)NCc1nc(-c2ccsc2)no1 (stereo unspecified)	> 100	–	–

SMILES	IC50 [2] [µM]	IC50 (Histidine--tRNA ligase)	other results
Cc1ncc(C(=O)NCCNc2ncccc2C#N)s1	> 100	–	–
CC(C)N1CCC(Cc2cc(-c3ccccc3C(=O)O)ncn2)CC1	> 100	–	–
CC[C@@H]1N(C)CCC[C@]12CCC(=O)N2Cc1ccncc1	> 100	–	–
COc1ccc(CNCc2ccnc(N3CCOCC3)c2)cc1OC	> 100	–	–
CC(OCC1CC1)C(=O)N1CCCN(Cc2cnn(C)c2)CC1 (stereo unspecified)	> 100	–	–
Cc1nc(CN2CCCN(C(=O)C(C)OCC3CC3)CC2)cs1 (stereo unspecified)	> 100	–	–
O=C(NCc1ccccc1Cn1cncn1)C1CCCCC1	> 100	–	–
Cc1ncsc1C(=O)NCCNc1ncccc1C#N	> 100	–	–
CC(Cn1cccn1)NCc1nc(-c2cccs2)no1 (stereo unspecified)	> 100	–	–
CCc1nnc(CN2CCCCC2Cn2nc(C)nc2C)o1 (stereo unspecified)	> 100	–	–
CNS(=O)(=O)c1ccc(CNC(=O)Nc2cn[nH]c2)cc1	> 100	–	–
Cc1cnn(CC2CCCCN2Cc2ncc(C(C)(C)C)o2)c1 (stereo unspecified)	> 100	–	–
CCOCC(O)CN1CCN(C(=O)c2ccc(N(C)C)nn2)CC1 (stereo unspecified)	> 100	–	–
Cn1ccnc1CN1CCCN(C(=O)CC(C2CC2)C2CC2)CC1	> 100	–	–
COc1cc(CNCc2ccnc(N3CCCCC3)c2)cc(OC)c1	> 100	–	–
O=C(c1ccccc1F)N1C[C@@H]2COC[C@]2(COCc2cccnc2)C1	> 100	–	–
CC(Cn1cccn1)NCc1nc(-c2ccccc2Cl)no1 (stereo unspecified)	> 100	–	–
COCc1nc2cc(NCc3ncc[nH]3)ccc2o1	> 100	–	–
CCCN(C(=O)c1cccnc1)c1nc2c(s1)CCc1c-2cnn1C	> 100	16.8 µM and 13.1 µM	IC50 (Lysine--tRNA ligase): > 50.1 µM
